Source: the NIST ThermoML archive (doi:10.1021/je5008372)

Columns and labels:
[1] = refractive index (Na D-line) (dimensionless); mn = molality of the nth substance listed, in mol/kg; settings: 86.8 kPa, Liquid, Standard Abbe refractometry
[2] = mn = molality of the nth substance listed, in mol/kg; settings: 86.8 kPa, Liquid; for viscosity: Capillary tube (Ostwald / Ubbelohde) method; for speed of sound: Sing-around technique in a fixed-path interferometer; for mass density: Vibrating tube method

CC(=O)Oc1ccccc1C(=O)O [2-acetoxybenzoic acid] + CC#N
Settings | mass density, [2] [kg/m3] | refractive index, [1] | speed of sound, [2] [m/s] | viscosity, [2] [mPa·s]
288.15 K, m1 = 0.0402 | 789.756 | 1.3467 | 1319.9 | 0.394
288.15 K, m1 = 0.0834 | 792.285 | 1.3476 | 1320.3 | 0.398
288.15 K, m1 = 0.11 | 793.822 | 1.3483 | 1320.6 | 0.402
288.15 K, m1 = 0.1394 | 795.495 | 1.349 | 1320.8 | 0.405
288.15 K, m1 = 0.1708 | 797.242 | 1.3498 | 1321.1 | 0.408
288.15 K, m1 = 0.2076 | 799.277 | 1.3505 | 1321.4 | 0.412
288.15 K, m1 = 0.2453 | 801.312 | 1.3513 | 1321.8 | 0.416
288.15 K, m1 = 0.2705 | 802.661 | 1.3519 | 1322 | 0.419
288.15 K, m1 = 0.3006 | 804.272 | 1.3527 | 1322.2 | 0.422
298.15 K, m1 = 0.0402 | 778.992 | 1.3422 | 1279.3 | 0.349
298.15 K, m1 = 0.0834 | 781.508 | 1.3431 | 1279.7 | 0.353
298.15 K, m1 = 0.11 | 783.035 | 1.3439 | 1279.9 | 0.355
298.15 K, m1 = 0.1394 | 784.705 | 1.3446 | 1280.2 | 0.358
298.15 K, m1 = 0.1708 | 786.446 | 1.3453 | 1280.4 | 0.362
298.15 K, m1 = 0.2076 | 788.483 | 1.3462 | 1280.7 | 0.365
298.15 K, m1 = 0.2453 | 790.515 | 1.347 | 1281 | 0.369
298.15 K, m1 = 0.2705 | 791.87 | 1.3477 | 1281.2 | 0.371
298.15 K, m1 = 0.3006 | 793.487 | 1.3484 | 1281.5 | 0.375
308.15 K, m1 = 0.0402 | 768.176 | 1.3378 | 1239 | 0.316
308.15 K, m1 = 0.0834 | 770.675 | 1.3388 | 1239.3 | 0.319
308.15 K, m1 = 0.11 | 772.198 | 1.3397 | 1239.5 | 0.322
308.15 K, m1 = 0.1394 | 773.857 | 1.3404 | 1239.7 | 0.325
308.15 K, m1 = 0.1708 | 775.597 | 1.3412 | 1240 | 0.328
308.15 K, m1 = 0.2076 | 777.624 | 1.3423 | 1240.3 | 0.331
308.15 K, m1 = 0.2453 | 779.658 | 1.3431 | 1240.5 | 0.334
308.15 K, m1 = 0.2705 | 781.016 | 1.3438 | 1240.8 | 0.337
308.15 K, m1 = 0.3006 | 782.624 | 1.3446 | 1241 | 0.34
318.15 K, m1 = 0.0402 | 757.205 | 1.3333 | 1198.8 | 0.292
318.15 K, m1 = 0.0834 | 759.697 | 1.3345 | 1199.2 | 0.295
318.15 K, m1 = 0.11 | 761.21 | 1.3352 | 1199.3 | 0.297
318.15 K, m1 = 0.1394 | 762.869 | 1.3359 | 1199.5 | 0.3
318.15 K, m1 = 0.1708 | 764.615 | 1.3367 | 1199.7 | 0.303
318.15 K, m1 = 0.2076 | 766.635 | 1.3377 | 1199.9 | 0.306
318.15 K, m1 = 0.2453 | 768.667 | 1.3388 | 1200.2 | 0.309
318.15 K, m1 = 0.2705 | 770.017 | 1.3395 | 1200.4 | 0.311
318.15 K, m1 = 0.3006 | 771.63 | 1.3403 | 1200.7 | 0.314
